The nature of data set [1]: Pharmacokinetic analysis in mice. It is filed as in vivo, C57BL/6 mice. From the text:
The pharmacokinetic properties of SS-1-64 are summarized in the following table along with a comparator RIPK2/NOD inhibitor CSLP37, N-(5-(2-Amino-5-(4-(piperazin-1-yl)phenyl)pyridin-3-yl)-3-fluoro-2-methoxyphenyl)propane-1-sulfonamide (U.S. Pat. No. 11,135,298 to Cuny et al.).

In data set [2] the test system is HEK-Blue cells expressing human NOD2. As to the kind of experiment: NOD2 signaling assay #1 (HEK-Blue NFkB-SEAP reporter, L18-MDP stimulated). It is filed as cell-based. Conditions: 1 ng/ml L18-MDP, read-out: IC50 (nM) HEKBlue. The method, then:
HEK-Blue cells expressing human NOD2 and NFkB-SAEP reporter (Invivogen) are seeded into 96 well clear plates at 7.5×10^3 cells per well in 100 μL of DMEM media supplemented with 10% FBS and 1% antibiotic-antimycotic mix. Cells are allowed to attach for 48 h in 5% CO2 tissue culture incubator at 37° C. On the morning of the experiment, media in the wells is replaced with 100 μL of HEK-Blue detection media (Invivogen). Cells are treated with the inhibitors, diluted in DMSO (0.5 μL per well) for 15 min in 5% CO2 tissue culture incubator at 37° C. After that, cells are stimulated by the addition of 1 ng/ml L18-MDP (Invivogen). Cells are incubated in 5% CO2 tissue culture incubator at 37° C. for 8 h and absorbance, corresponding to the SEAP in the media, is determined in Wallac3V plate reader (Perkin Elmer). Inhibition, %=(1−((sample signal-unstimulated and DMSO treated cells)/(L18-MDP stimulated and DMSO treated cells−unstimulated and DMSO treated cells)))*100. IC50 values are calculated based on a dose range of inhibitor concentrations using non-linear regression in GraphPad Prism software.

The target in data set [3] is Recombinant RIPK2 protein (Homo sapiens, UniProt O43353). In words: RIPK2 enzyme assay (ADP-Glo). To be noted: NI: no inhibition observed. In kind it is biochemical. The method, then:
Recombinant RIPK2 protein (20 ng per reaction) is diluted in the reaction buffer consisting of 40 mM Tris (pH 7.5); 20 mM MgCl2; 0.1 mg/ml BSA; 50 μM DTT. Diluted protein is added to low volume white 384 well plates (2 μL/well). Inhibitors are diluted in reaction buffer (final 25% DMSO), 1 μL is added to each well and incubated 5 min at room temperature. Reactions are initiated by the addition of 2 μL of 100 μM ATP and 1 mg/ml RS repeat peptide (SignalChem) in the reaction buffer. Plates are sealed with plastic coverslips and incubated at room temperature for 2 h. Reactions are stopped by the addition of 5 μL of ADP-Glo reagent (Promega) and ADP generation reaction is performed for 40 min at room temperature. Luminescence signal is generated by the addition of 10 μL of Kinase detection reagent (Promega) for 30 min at room temperature. Luminescence signals are determined using appropriate luminescence plate-reader (typical integration time 0.3-1 sec). To calculate percent inhibition, average background signal is subtracted from test well and maximal signal wells. Inhibition, %=(1−(test signal/maximal signal))*100. The percent inhibition at a specified concentration is determined or IC50 values are calculated based on a dose range of inhibitor concentrations using non-linear regression in GraphPad Prism software.

Data set [4] concerns NOD2 cellular signaling in THP1 cells. In words: NOD2 signaling assay #2 (THP1 NFkB-SEAP reporter, L18-MDP stimulated). It is filed as cell-based. To be noted: Homo sapiens, THP-1, 10 ng/ml L18-MDP. The method, then:
THP1 cells expressing NFkB-SAEP reporter (Invivogen) are seeded into 96 well clear plates at 5×10^4 cells per well in 100 μL of RPM11640 media supplemented with 10% FBS and 1% antibiotic-antimycotic mix. Cells are treated with the inhibitors, diluted in DMSO ([…] per well) for 15 min in 5% CO2 tissue culture incubator at 37° C. After that, cells are stimulated by the addition of 10 ng/ml L18-MDP (Invivogen). Cells are incubated in 5% CO2 tissue culture incubator at 37° C. for 8 h and absorbance, corresponding to the SEAP in the media, is determined in Wallac3V plate reader (Perkin Elmer). Inhibition, %=(1−((sample signal-unstimulated and DMSO treated cells)/(L18-MDP stimulated and DMSO treated cells−unstimulated and DMSO treated cells)))*100. IC50 values are calculated based on a dose range of inhibitor concentrations using non-linear regression in GraphPad Prism software.

[5] abbreviates: female, C57BL/6, mouse, in vivo, ip, 10 mg/kg.
Setting [6] is: single dose 10 mg/kg intraperitoneally, female C57BL/6 mice.

The structures appear in SMILES notation. Read-outs that look alike come from different tables or passages of the source.

Chain of Recombinant RIPK2 protein (O43353 whole entry, species assumed): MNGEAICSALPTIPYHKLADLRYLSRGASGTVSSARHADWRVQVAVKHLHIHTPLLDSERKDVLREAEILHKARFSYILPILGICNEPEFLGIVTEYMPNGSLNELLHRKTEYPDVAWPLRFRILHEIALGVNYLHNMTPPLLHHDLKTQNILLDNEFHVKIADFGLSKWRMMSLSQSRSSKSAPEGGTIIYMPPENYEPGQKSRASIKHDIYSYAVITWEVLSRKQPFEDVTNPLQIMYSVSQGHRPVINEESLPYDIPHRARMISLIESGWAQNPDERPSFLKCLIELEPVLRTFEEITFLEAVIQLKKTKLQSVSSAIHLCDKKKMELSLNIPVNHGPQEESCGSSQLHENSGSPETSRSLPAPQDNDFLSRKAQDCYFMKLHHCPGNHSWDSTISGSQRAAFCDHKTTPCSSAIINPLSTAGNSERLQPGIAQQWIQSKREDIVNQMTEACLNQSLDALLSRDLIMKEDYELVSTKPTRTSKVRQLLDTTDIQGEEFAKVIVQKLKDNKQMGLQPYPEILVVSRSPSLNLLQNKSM

Turning to `CCCS(=O)(=O)Nc1cc(-c2cc(-c3ccc(N4CCNCC4)cc3)cnc2N)cc(F)c1OC` [CSLP37, N-(5-(2-Amino-5-(4-(piperazin-1-yl)phenyl)pyridin-3-yl)-3-fluoro-2-methoxyphenyl)propane-1-sulfonamide, reference compound], in data set [1] (setting [5]), the “Cl (clearance)” value was 59.66 ± 15.09 mL/min/kg, the Cmax came out at 550 ± 200 nM, the Tmax was 1.2 ± 0.4472 h and the “V (volume of distribution)” value was 24.04 ± 6.15 L/kg. The “t1/2 (plasma elimination half-life)” value in data set [1] (setting [5]) is 4.66 ± 0.24 h. For the same compound, the AUC in data set [1] (mouse, in vivo, ip, 10 mg/kg) stood at 2920 ng·h/mL.

Consider `CCCS(=O)(=O)Nc1cc(-c2cc(Br)cnc2N)cc(F)c1OC` [SS-1-5, N-(5-(2-amino-5-bromopyridin-3-yl)-3-fluoro-2-methoxyphenyl)propane-1-sulfonamide], for which the IC50 in data set [2] is 57 nM.

Regarding `CCCS(=O)(=O)Nc1cc(-c2cc(-c3ccc(N4CCNCC4)cc3)cnc2NC)cc(F)c1OC` [SS-1-10, N-(3-fluoro-2-methoxy-5-(2-(methylamino)-5-(4-(piperazin-1-yl)phenyl)pyridin-3-yl)phenyl)propane-1-sulfonamide], the IC50 in data set [2] came out at 16 nM.

Take `CCCS(=O)(=O)Nc1cc(-c2cc(-c3ccc(C4CCNCC4)cc3)cnc2N)cc(F)c1OC` [SS-1-14, N-(5-(2-amino-5-(4-(piperidin-4-yl)phenyl)pyridin-3-yl)-3-fluoro-2-methoxyphenyl)propane-1-sulfonamide]: the figures for the concentration for half-maximal inhibition (IC50) in data set [3] and in data set [2] were 11 nM and 0.06 nM, respectively.

For the compound `CCCS(=O)(=O)Nc1cc(-c2cc(-c3ccc(N4CCN(C)CC4)cc3)cnc2N)cc(F)c1OC` [SS-1-18, N-(5-(2-amino-5-(4-(4-methylpiperazin-1-yl)phenyl)pyridin-3-yl)-3-fluoro-2-methoxyphenyl)propane-1-sulfonamide], the IC50 was 10 nM in data set [3] and 0.03 nM in data set [2].

On to `COc1c(F)cc(-c2cc(-c3ccc(N4CCNCC4)cc3)cnc2N)cc1NS(C)(=O)=O` [SS-1-33, N-(5-(2-amino-5-(4-(piperazin-1-yl)phenyl)pyridin-3-yl)-3-fluoro-2-methoxyphenyl)methanesulfonamide], for which the IC50 in data set [3] was 29 nM; in data set [2] it was 0.17 nM.

As for `CCCS(=O)(=O)Nc1cc(-c2cc(-c3ccc(C4CCN(C)CC4)cc3)cnc2N)cc(F)c1OC` [SS-1-38, N-(5-(2-amino-5-(4-(1-methylpiperidin-4-yl)phenyl)pyridin-3-yl)-3-fluoro-2-methoxyphenyl)propane-1-sulfonamide], the results for the IC50 in data set [3] and in data set [2] were 31 nM and 0.07 nM, respectively.

`CCCS(=O)(=O)N(C)c1cc(-c2cc(-c3ccc(N4CCNCC4)cc3)cnc2N)cc(F)c1OC` [SS-1-39, N-(5-(2-amino-5-(4-(piperazin-1-yl)phenyl)pyridin-3-yl)-3-fluoro-2-methoxyphenyl)-N-methylpropane-1-sulfonamide]: the 50% inhibitory concentration (IC50) in data set [3] is 137 nM; in data set [2], 1.2 nM.

Consider `COc1c(F)cc(-c2cc(-c3ccc(C4CCN(C)CC4)cc3)cnc2N)cc1NS(C)(=O)=O` [SS-1-43, N-(5-(2-amino-5-(4-(1-methylpiperidin-4-yl)phenyl)pyridin-3-yl)-3-fluoro-2-methoxyphenyl)methanesulfonamide], for which half-maximal inhibition in data set [4] (IC50) required 0.1 nM.

In data set [4], `COc1c(F)cc(-c2cc(-c3ccc(C4CCN(C)CC4)cc3)cnc2N)cc1N(C)S(C)(=O)=O` [SS-1-50, N-(5-(2-amino-5-(4-(1-methylpiperidin-4-yl)phenyl)pyridin-3-yl)-3-fluoro-2-methoxyphenyl)-N-methylmethanesulfonamide] showed an IC50 of 1.2 nM.

The compound `COc1cc(-c2cc(-c3ccc(C4CCN(C)CC4)cc3)cnc2N)cc(NS(C)(=O)=O)c1OC` [SS-1-64, N-(5-(2-amino-5-(4-(1-methylpiperidin-4-yl)phenyl)pyridin-3-yl)-2,3-dimethoxyphenyl)methanesulfonamide] came in with an IC50 in data set [4] of 0.014 nM. Also, the Cmax in data set [1] (mouse, in vivo, ip, single dose 10 mg/kg intraperitoneally, 6% Captisol in water, female C57BL/6 mice, read-out: maximum plasma concentration (Cmax)) turned out to be 1630 ± 1200 nM. Moreover, the Tmax in data set [1] (mouse, in vivo, ip, single dose 10 mg/kg intraperitoneally, female C57BL/6 mice, read-out: Tmax) worked out at 1 h; in data set [1] (single dose 10 mg/kg intraperitoneally, female C57BL/6 mice, plasma) it was 1 ± 0 h. In addition, the half-life in data set [1] (mouse, in vivo, ip, single dose 10 mg/kg intraperitoneally, female C57BL/6 mice, read-out: t1/2 (plasma elimination half-life) (converted)) was 7.88 ± 0.28 h. Besides, in data set [1] (setting [6]), the “Cl (clearance)” value turned out to be 53.56 ± 5.68 mL/min/kg. In data set [1] (setting [6]), the “V (volume of distribution)” value stood at 36.45 ± 2.61 L/kg.

Turning to `CCCS(=O)(=O)Nc1cc(-c2cc(C#CCN3CCN(C)CC3)cnc2N)cc(F)c1OC` [SS-1-66, N-(5-(2-amino-5-(3-(4-methylpiperazin-1-yl)prop-1-yn-1-yl)pyridin-3-yl)-3-fluoro-2-methoxyphenyl)propane-1-sulfonamide], in data set [4], the midpoint of inhibition, the IC50, lay at 20 nM.

The compound `COc1cc(-c2cc(-c3ccc(C4CCN(C)CC4)cc3)cnc2N)cc(NC(C)=O)c1OC` [SS-2-41, N-(5-(2-amino-5-(4-(1-methylpiperidin-4-yl)phenyl)pyridin-3-yl)-2,3-dimethoxyphenyl)acetamide] displayed an IC50 in data set [4] of 0.1 nM.

The record behind these values is US20250340527A1, “RIPK2 AND NOD INHIBITORS” (Trustees of Tufts College, priority 2022, published 2025).
